Data as given in patent publication US8470889B2 (TRT Pharma Inc., priority 2008, dated 2013).
Changes are numbered by the printed parent chain. Like-named read-outs stand apart in the source and are kept apart here.

What was measured:
LNCaP cells = test: MTT cell growth inhibition, LNCaP;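 further: MTT formazan absorbance at 600 nm read after 72 h of compound exposure, IC50 fitted by nonlinear regression of dose-response curves, samples run in triplicate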
Procedure: MDA PCa 2b was seeded at the same density in medium BRFF-HPC1 (Athena Enzyme Systems, Baltimore, Md., USA) supplemented with 20% FBS. After overnight incubation, the medium was changed to a fresh medium containing different concentrations of test compounds diluted from stock DMSO solution. The final concentration of DMSO is 0.5%. After 72 h of incubation with test compounds, 20 μL of 3-(4,5-dimethyl thiazol-2-yl)-2,5-diphenyltetrazolium bromide (MTT) solution (5 mg/mL in PBS) were added to each well and incubated further for 2 h. Next, the supernatant was aspirated and the MTT formazan formed by metabolically viable cells was dissolved in 100 μL of isopropanol. The plates were mixed for 30 min, and the absorbance was measured at 600 nm on a plate reader (FLUOstar OPTIMA, BMG LabTech). All samples were in triplicate. The IC50 values were determined from dose-response curves by nonlinear regression using PRISM v5.00 (GraphPad Software Inc, La Jolla, Calif., USA).
The in vitro cytotoxicity of 1-20 were evaluated by MTT assays in a panel of prostate cancer cell lines, including LNCaP, MDA PCa 2b, 22Rv1, C4-2B and PC-3.

T877A mutated AR = target: T1, T877A mutated AR (Homo sapiens, UniProt P10275, T878A); test: Luciferase assay for AR transactivation, T877A AR, PC-3 cells; format: cell-based; details: 0.1 nM DHT; for suppression of DHT-induced transactivation of T877A AR: test compound 0.1-1 μM, PC-3 cells; for Antiandrogenic activity evaluated by luciferase assay in PC-3 cells T877A: test compound 1 μM
T1 sequence (P10275 1-920 T878A): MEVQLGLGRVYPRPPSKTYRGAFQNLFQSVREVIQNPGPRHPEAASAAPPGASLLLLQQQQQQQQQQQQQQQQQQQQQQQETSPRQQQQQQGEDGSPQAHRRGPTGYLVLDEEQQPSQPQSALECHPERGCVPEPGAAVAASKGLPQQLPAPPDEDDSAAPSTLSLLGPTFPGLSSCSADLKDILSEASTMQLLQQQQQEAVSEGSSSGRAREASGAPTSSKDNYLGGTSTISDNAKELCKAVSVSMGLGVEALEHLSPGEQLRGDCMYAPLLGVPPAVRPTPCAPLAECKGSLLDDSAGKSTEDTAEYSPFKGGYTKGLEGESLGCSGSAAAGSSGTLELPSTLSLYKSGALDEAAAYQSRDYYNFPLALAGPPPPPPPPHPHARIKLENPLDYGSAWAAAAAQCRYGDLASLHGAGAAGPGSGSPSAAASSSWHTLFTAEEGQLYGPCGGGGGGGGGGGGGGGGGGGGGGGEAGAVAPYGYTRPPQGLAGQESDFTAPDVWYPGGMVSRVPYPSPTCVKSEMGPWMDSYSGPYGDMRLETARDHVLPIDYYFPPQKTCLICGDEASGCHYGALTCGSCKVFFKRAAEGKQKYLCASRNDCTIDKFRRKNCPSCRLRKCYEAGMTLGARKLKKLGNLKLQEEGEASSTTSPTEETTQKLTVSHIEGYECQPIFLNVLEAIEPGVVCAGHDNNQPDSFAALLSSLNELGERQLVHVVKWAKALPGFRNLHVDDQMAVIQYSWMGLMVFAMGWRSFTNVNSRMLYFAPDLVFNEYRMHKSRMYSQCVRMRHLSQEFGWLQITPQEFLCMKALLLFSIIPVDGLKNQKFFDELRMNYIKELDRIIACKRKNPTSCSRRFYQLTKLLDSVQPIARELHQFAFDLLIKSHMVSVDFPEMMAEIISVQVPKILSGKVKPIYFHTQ
Procedure: (§1) PC-3 cells were transiently transfected with pCMV-MMTV-Luc, Renilla null luciferase and AR expressing plasmids. The cells were treated with 0.1 nM DHT with and without test compound for 24 hr. Relative luciferase activity was determined by dual luciferase assay kit (Promega), standardized to Renilla luciferase control and normalized to 0.1 nM DHT without test compound (100%).
(§2) After 16 h, the cells were treated with 0.1 nM of DHT and test compounds at the designated concentration. After further 24 h, the cells were lysed in 100 μL/well passive lysis buffer, and 20 μL of the cell lysates was used for detection of the luciferase activity using Dual Luciferase Assay System (Promega). All experiments were run in triplicate. Relative luciferase activity is determined as the ratio of inducible firefly luciferase luminescence divided by the luminescence of the renilla luciferase control normalized to 0.1 nM DHT without test compounds.
(§3) The potency of antagonistic activity: ++>+.

H874Y mutated AR = target: T2, H874Y mutated AR (Homo sapiens, UniProt P10275, H875Y); test: Luciferase assay for AR transactivation, H874Y AR, PC-3 cells; format: cell-based; details: 0.1 nM DHT; for suppression of DHT-induced transactivation of H874Y AR: test compound 0.1-1 μM, PC-3 cells; for Antiandrogenic activity evaluated by luciferase assay in PC-3 cells H874Y: test compound 1 μM
T2 sequence (P10275 1-920 H875Y): T1 sequence (P10275 1-920 T878A) with H875Y, A878T
Procedure: as §1, §2, §3

[1] = read-out: Cellular IC50 (μM) LNCaP, Table 9

| Structure (SMILES) | IC50 (LNCaP cells; read-out: IC50 in LNCaP cells) [µM] | suppression of DHT-induced transactivation of T877A AR (T877A mutated AR) | suppression of DHT-induced transactivation of H874Y AR (H874Y mutated AR) | IC50 (LNCaP cells; [1]) [µM] | Antiandrogenic activity evaluated by luciferase assay in PC-3 cells T877A (T877A mutated AR) | Antiandrogenic activity evaluated by luciferase assay in PC-3 cells H874Y (H874Y mutated AR) |
| --- | --- | --- | --- | --- | --- | --- |
| CC1=C(/C=C/C(=O)/C=C/c2cccc(C(F)(F)F)c2)C(C)(C)CCC1O (racemic) [Compound B25] | 0.74 | dose-dependent activity | dose-dependent activity | – | – | – |
| CC1(C)CCC(O)C=C1/C=C/C(=O)/C=C/c1cnc2ccccc2c1 (stereo not shown) [Compound B95] | – | effective | effective | 0.63 | ++ | ++ |
| CC1(C)CCC(O)C=C1/C=C/C(=O)/C=C/c1csc2ccccc12 (stereo not shown) [Compound B92] | – | pure antagonists | pure antagonists | 1.1 | ++ | + |
